Assay results: article PMC6413085, “A Validated HPLC-MS/MS Assay for 14-O-[(4,6-Diaminopyrimidine-2-yl)thioacetyl] Mutilin in Biological Samples and Its Pharmacokinetic, Distribution and Excretion via Urine and Feces in Rats” (Molecules, 2019)
Like-named read-outs stand apart in the source and are kept apart here.

How the values were obtained:
[1] = Pharmacokinetic study of DPTM in rats after i.v., i.m. and p.o. administration (HPLC-MS/MS, non-compartmental); assay type: in vivo; settings: Sprague-Dawley, plasma, rat; for Tmax: median (min–max); for bioavailability: read-out: F, absolute bioavailability; for MRT last: read-out: MRT0–t; for CL renal: read-out: CLR(0–t) renal clearance; for Vd: read-out: Vss
Protocol: After administration of three i.v., i.m. and p.o. dose (10, 25 and 75 mg/kg) of DPTM to rats, the pharmacokinetic profiles of DPTM were quantified by the validated HPLC-MS/MS methods. […] Blood samples (approximately 200 µL) were collected into heparinized tubes through an indwelling catheter inserted in the jugular vein [30] at 0.083, 0.166, 0.5, 1, 2, 4, 6, 8, 12 and 24 h after i.v. dosing and at 0.083, 0.166, 0.5, 1, 2, 4, 6, 8, 12, 24 and 48 h after i.m. or p.o. dosing. The samples were immediately centrifuged (4000 rpm for 10 min) and the supernatants were taken out and stored in a freezer at −70 °C until analysis. The drug was extracted with acetonitrile using the condition previously described. Then, an aliquot of the reconstituted extracts was transferred and filtrated through a 0.22-μm cellulose membrane filter and 10 μL was injected into the HPLC-MS/MS system. A non-compartmental model was used to determine the pharmacokinetic parameters of DPTM. Pharmacokinetic parameters, including maximum plasma concentration (Cmax), time (Tmax), area under the plasma concentration versus time curve from zero to last sampling time (AUC0−t) and elimination half-life (t1/2) were calculated using WinNonlin software (version 2.1, Pharsight, Mountain View, CA, USA). The absolute bioavailability was calculated as follows:F = (AUCextravascular/(AUCi.v.) × (dosei.v./doseextravascular) × 100%. The data are presented as mean ± standard deviation (SD) except for Tmax values using median (minimum value–maximum value).

[2] = Tissue distribution study in rats; assay type: in vivo, Sprague-Dawley rats; settings: rat, 75 mg/kg; for highest level in cecum / highest level in jejunum / highest level in large intestine / highest level in lung / highest level in small intestine: within the first 24 h
Protocol: We also successfully used the established LC-MS/MS method for detection of the concentration of DPTM in rat tissue homogenates. The quantification of DPTM used the specific standard curves in each corresponding bio-matrix. After i.v., i.m. and p.o. administration of 75 mg/kg DPTM, tissue distribution was investigated at 0.5, 4, 12 and 48 h by collecting the heart, liver, brain, spleen, lung, kidney, large intestine, small intestine, ileum, cecum, bladder, jejunum and colon. Tissue distribution study in rats was performed as described previously. Animals were divided into three groups (n = 12) and DPTM was administered via i.m., i.v. and p.o. with a single dose of 75 mg/kg. A series of heart, liver, spleen, lung, kidney, large intestine, small intestine, ileum, cecum, bladder, brain, jejunum and colon samples were collected before and at 0.5, 4, 12 and 48 h time points after administration and rinsed with phosphate buffer to remove the blood and feces, followed by weighing the wet weight and freezing at −70 °C until analysis. The concentrations of DPTM in rat various tissues were expressed in ng/g and calculated by equation: Ct = Cs × Vs/P, where Ct represented the tissue concentration (ng/g), Cs, Vs and P were the concentration (ng/mL), the volume (mL) and the weight (g) of the tissue samples, respectively.

[3] = Excretion via urine and feces study in rats; assay type: in vivo, Sprague-Dawley rats; settings: rat, 75 mg/kg
Protocol: Excretion via urine and feces was studied in another six rats (half male and half female). After the rats were administered via a single i.v., i.m. and p.o. dose (75 mg/kg) of DPTM, urine and feces samples were collected at 0–4, 4–8, 8–12, 12–24, 24–36, 36–48, 48–72, 72–96, 96–144, 144–192 and 192–240 h intervals in plastic centrifuge tubes and stored at −70 °C until analysis. For quantitative analysis, the fecal samples were dried at 45 °C for 24 h and prepared by the established sample treatment procedure. The urinary samples were prepared by the established sample treatment procedure directly. The obtained samples were injected into the HPLC-MS/MS system for analysis.

Tmax ([1]; im, 10 mg/kg): 0.5 h | Tmax ([1]; im, 25 mg/kg): 0.5 h | Tmax ([1]; im, 75 mg/kg): 0.5 h | bioavailability ([1]; im, i.m., 10 mg/kg): 68.2% | MRT last ([1]; im, i.m., 10 mg/kg): 4.4 ± 0.3 h | bioavailability ([1]; im, i.m., 25 mg/kg): 48.5% | MRT last ([1]; im, i.m., 25 mg/kg): 4.8 ± 0.3 h | CL renal ([1]; im, i.m., 75 mg/kg): 46.2 ± 3.8 mL/min | bioavailability ([1]; im, i.m., 75 mg/kg): 15.8% | MRT last ([1]; im, i.m., 75 mg/kg): 4.2 ± 0.8 h | clearance ([1]; iv, 10 mg/kg): 5 mL/min/kg | Tmax ([1]; iv, 10 mg/kg): 0.08 h | clearance ([1]; iv, 25 mg/kg): 1.67 mL/min/kg | Tmax ([1]; iv, 25 mg/kg): 0.08 h | clearance ([1]; iv, 75 mg/kg): 0.5 mL/min/kg | Tmax ([1]; iv, 75 mg/kg): 0.083 h | MRT last ([1]; iv, i.v., 10 mg/kg): 1 ± 0.2 h | Vd ([1]; iv, i.v., 10 mg/kg): 0.3 ± 0.1 L/kg | MRT last ([1]; iv, i.v., 25 mg/kg): 1.3 ± 0.7 h | Vd ([1]; iv, i.v., 25 mg/kg): 0.2 L/kg | CL renal ([1]; iv, i.v., 75 mg/kg): 97.6 ± 9.6 mL/min | MRT last ([1]; iv, i.v., 75 mg/kg): 1.5 ± 0.4 h | Vd ([1]; iv, i.v., 75 mg/kg): 0.03 L/kg | Tmax ([1]; po, 10 mg/kg): 2 h | Tmax ([1]; po, 25 mg/kg): 2 h | Tmax ([1]; po, 75 mg/kg): 2 h | bioavailability ([1]; po, p.o., 10 mg/kg): 22.9% | MRT last ([1]; po, p.o., 10 mg/kg): 12.8 ± 0.1 h | bioavailability ([1]; po, p.o., 25 mg/kg): 24.3% | MRT last ([1]; po, p.o., 25 mg/kg): 9.8 ± 0.2 h | CL renal ([1]; po, p.o., 75 mg/kg): 12.2 ± 1.3 mL/min | bioavailability ([1]; po, p.o., 75 mg/kg): 4.17% | MRT last ([1]; po, p.o., 75 mg/kg): 6.9 ± 0.4 h | half-life ([1]; im, 10 mg/kg, i.m., 10 mg/kg, read-out: t1/2 (converted)): 3.5 h | AUC(0-t) ([1]; im, 10 mg/kg, rat serum, i.m., 10 mg/kg, read-out: AUC0→t): 1500 ± 100 ng·h/mL | Cmax ([1]; im, 10 mg/kg, rat serum, i.m., 10 mg/kg, read-out: Cmax): 500 ± 100 ng/mL | half-life ([1]; im, 25 mg/kg, i.m., 25 mg/kg, read-out: t1/2 (converted)): 3.2 ± 0.2 h | AUC(0-t) ([1]; im, 25 mg/kg, rat serum, i.m., 25 mg/kg, read-out: AUC0→t): 2600 ± 200 ng·h/mL | Cmax ([1]; im, 25 mg/kg, rat serum, i.m., 25 mg/kg, read-out: Cmax): 700 ± 100 ng/mL | half-life ([1]; im, 75 mg/kg, i.m., 75 mg/kg, read-out: t1/2 (converted)): 3.3 ± 0.3 h | AUC(0-t) ([1]; im, 75 mg/kg, i.m., range over 10, 25 and 75 mg/kg doses, read-out: area under the curve from 0 to 48 h (AUC0→t)): 1520 to 5700 ng·h/mL | half-life ([1]; im, 75 mg/kg, i.m., range over 10, 25 and 75 mg/kg doses, read-out: half-life (t1/2)): 3.23 to 3.49 h | AUC(0-t) ([1]; im, 75 mg/kg, rat serum, i.m., 75 mg/kg, read-out: AUC0→t): 5700 ± 200 ng·h/mL | Cmax ([1]; im, 75 mg/kg, rat serum, i.m., 75 mg/kg, read-out: Cmax): 1800 ± 100 ng/mL | Cmax ([1]; im, range over 10, 25 and doses, read-out: maximum concentration (Cmax) of drug in serum): 470 to 1830 ng/mL | half-life ([1]; iv, 10 mg/kg, i.v., 10 mg/kg, read-out: t1/2 (converted)): 1.7 ± 0.1 h | AUC(0-t) ([1]; iv, 10 mg/kg, rat serum, i.v., 10 mg/kg, read-out: AUC0→t): 2200 ± 200 ng·h/mL | Cmax ([1]; iv, 10 mg/kg, rat serum, i.v., 10 mg/kg, read-out: Cmax): 7500 ± 400 ng/mL | half-life ([1]; iv, 25 mg/kg, i.v., 25 mg/kg, read-out: t1/2 (converted)): 1.7 ± 0.4 h | AUC(0-t) ([1]; iv, 25 mg/kg, rat serum, i.v., 25 mg/kg, read-out: AUC0→t): 5400 ± 200 ng·h/mL | Cmax ([1]; iv, 25 mg/kg, rat serum, i.v., 25 mg/kg, read-out: Cmax): 16000 ± 500 ng/mL | half-life ([1]; iv, 75 mg/kg, i.v., 75 mg/kg, read-out: t1/2 (converted)): 1.9 ± 0.5 h | AUC(0-t) ([1]; iv, 75 mg/kg, i.v., range over 10, 25 and 75 mg/kg doses, read-out: area under the curve from 0 to 48 h (AUC0→t)): 2230 to 36000 ng·h/mL | half-life ([1]; iv, 75 mg/kg, i.v., range over 10, 25 and 75 mg/kg doses, read-out: half-life (t1/2)): 1.7 to 1.86 h | AUC(0-t) ([1]; iv, 75 mg/kg, rat serum, i.v., 75 mg/kg, read-out: AUC0→t): 36000 ± 300 ng·h/mL | Cmax ([1]; iv, 75 mg/kg, rat serum, i.v., 75 mg/kg, read-out: Cmax): 65100 ± 800 ng/mL | Cmax ([1]; iv, range over 10, 25 and doses, read-out: maximum concentration (Cmax) of drug in serum): 7540 to 65100 ng/mL | half-life ([1]; po, 10 mg/kg, p.o., 10 mg/kg, read-out: t1/2 (converted)): 4.6 ± 0.1 h | AUC(0-t) ([1]; po, 10 mg/kg, rat serum, p.o., 10 mg/kg, read-out: AUC0→t): 500 ± 100 ng·h/mL | Cmax ([1]; po, 10 mg/kg, rat serum, p.o., 10 mg/kg, read-out: Cmax): 100 ng/mL | half-life ([1]; po, 25 mg/kg, p.o., 25 mg/kg, read-out: t1/2 (converted)): 4.4 ± 0.2 h | AUC(0-t) ([1]; po, 25 mg/kg, rat serum, p.o., 25 mg/kg, read-out: AUC0→t): 1300 ± 100 ng·h/mL | Cmax ([1]; po, 25 mg/kg, rat serum, p.o., 25 mg/kg, read-out: Cmax): 200 ng/mL | half-life ([1]; po, 75 mg/kg, p.o., 75 mg/kg, read-out: t1/2 (converted)): 4.7 ± 0.4 h | AUC(0-t) ([1]; po, 75 mg/kg, p.o., range over 10, 25 and 75 mg/kg doses, read-out: area under the curve from 0 to 48 h (AUC0→t)): 510 to 1500 ng·h/mL | half-life ([1]; po, 75 mg/kg, p.o., range over 10, 25 and 75 mg/kg doses, read-out: half-life (t1/2)): 4.38 to 4.7 h | AUC(0-t) ([1]; po, 75 mg/kg, rat serum, p.o., 75 mg/kg, read-out: AUC0→t): 1500 ng·h/mL | Cmax ([1]; po, 75 mg/kg, rat serum, p.o., 75 mg/kg, read-out: Cmax): 300 ± 100 ng/mL | Cmax ([1]; po, range over 10, 25 and doses, read-out: maximum concentration (Cmax) of drug in serum): 50 to 310 ng/mL | amount in colon until 48 h ([2]; i.m.): 7849 ± 243 ng/mg | highest level in cecum ([2]; i.m.): 63404 ± 407 ng/mg | highest level in jejunum ([2]; i.m.): 12551 ± 432 ng/mg | highest level in large intestine ([2]; i.m.): 17978 ± 116 ng/mg | highest level in lung ([2]; i.m.): 15345 ± 579 ng/mg | highest level in small intestine ([2]; i.m.): 37890 ± 437 ng/mg | amount in colon until 48 h ([2]; i.v.): 3214 ± 177 ng/mg | highest level in cecum ([2]; i.v.): 62457 ± 675 ng/mg | highest level in jejunum ([2]; i.v.): 23543 ± 799 ng/mg | highest level in large intestine ([2]; i.v.): 31241 ± 355 ng/mg | highest level in lung ([2]; i.v.): 39411 ± 357 ng/mg | highest level in small intestine ([2]; i.v.): 26753 ± 690 ng/mg | amount in colon until 48 h ([2]; p.o.): 22114 ± 215 ng/mg | highest level in cecum ([2]; p.o.): 31087 ± 452 ng/mg | highest level in jejunum ([2]; p.o.): 38769 ± 546 ng/mg | highest level in large intestine ([2]; p.o.): 4123 ± 567 ng/mg | highest level in lung ([2]; p.o.): 14685 ± 654 ng/mg | highest level in small intestine ([2]; p.o.): 6743 ± 474 ng/mg | DPTM in urine (192 h) and feces (240 h) at the last acquisition time point ([3]; LLOQ 5 ng/mL): lower than that of the LLOQ | prototype drug excreted in urine at 192 h ([3]; i.m.): 1.39% | prototype drug excreted in urine at 192 h ([3]; i.v.): 1.63% | prototype drug excreted in urine at 192 h ([3]; p.o.): 1.20%
SMILES: C=CC1(C)CC(OC(=O)CSc2nc(N)cc(N)n2)C2(C)C(C)CCC3(CCC(=O)C32)C(C)C1O (stereo not shown) [DPTM, 14-O-[(4,6-Diaminopyrimidine-2-yl)thioacetyl] mutilin]
